# “Also recorded” adds a separate entry of the source.
# Columns and labels:
# [1] = system: aortic endothelial cells (HAECs); assay: Inflammasome activation and pyroptosis in aortic endothelial cells; format: cell-based, human; conditions: ANS 1 μM
# NLRP1^DR = assay: NLRP1 PYD-DR1 / NLRP1^DR phosphorylation (GFP fusion, immunoblot, PhosTag SDS-PAGE) in N-TERT cells; format: cell-based, human
# Text: (§1) The following antibodies were used in this study: cleaved PARP1 (Abclonal, #WH162766), Cleaved CASP3 (Abclonal, #WH154646), Full length GSDMD-FL (Abcam, #ab210070), IL1β p17 specific (CST, #83186S), CARD8 (Abcam, CARD8-NT: ab19485, CARD8-CT: ab241186), DPP9 (Abcam, ab226334), c-Myc (Santa Cruz Biotechnology, #sc-40), HA tag (Santa Cruz Biotechnology, #sc-805), GAPDH (Santa Cruz Biotechnology, #sc-47724), ASC (Adipogen, #AL-177), CASP1 (Santa Cruz Biotechnology, #sc-622), 11_1B (R&D systems, #AF-201), FLAG (SigmaAldrich, #F3165), NLRP1 (R&D systems, #AF6788), IL18 (Abcam ab207324), cleaved GSDMD-NT (Asp275) (Cell Signaling Technology, #36425), RPL31 (Abclonal, #WH162766), CASP7 (Abcam, ab255818), CASP8 (Abcam, ab32397), cleaved CASP3 (Cell Signaling Technology, #9664). All horseradish peroxidase (HRP)— conjugated secondary antibodies were purchased from Jackson Immunoresearch (goat anti-mouse IgG: 115-035-166; goat anti-rabbit IgG: 111-035-144; and donkey anti-goat IgG: 705-005-147). Blue-Native PAGE was carried out using the Native-PAGE system (ThermoFisher) with 10-20 μg of total lysate. For SDS-PAGE using whole cell lysates, cells were resuspended in tris-buffered saline 1% NP-40 with protease inhibitors (Thermo Scientific, #78430). Protein concentration was determined using the Bradford assay (Thermo Scientific, #23200) and […] of protein loaded, a part from cleaved GSDMD-NT visualisation where […] of protein was used. All primary antibodies were used at 250 ng/ml. Visualisation of ASC oligomerization was previously described (Robinson et al., 2020). For analysis of IL1β and IL-18 cleavage in the media by immunoblotting, samples were concentrated using filtered centrifugation (Merck, Amicon Ultra, #UFC5003BIK). Protein samples were run using immunoblotting, and then visualized using a ChemiDoc Imaging system (Bio-Rad). PhosTag SDS-PAGE was carried out using homemade 10% SDS-PAGE gel, with addition of Phos-tag Acrylamide (Wako Chemicals, AAL-107) to a final concentration of 30 μM and manganese chloride(II) (Sigma-Aldrich, #63535) to 60 μM.
# Cells were directly harvested using Laemmli buffer, lysed with an ultrasonicator, and loaded into the Phos-tag gel to run. Once the run was completed, the polyacrylamide gel was washed in transfer buffer with 10 mM EDTA twice, subsequently washed without EDTA twice, blotted onto 0.45 μm PVDF membranes (Bio-rad), blocked with 3% milk, and incubated with primary and corresponding secondary antibodies.
# human DPP9 = target: T1, human DPP9 (Homo sapiens, UniProt Q86TI2); assay: DPP8/9 activity assay (in vitro proteolysis assay); format: biochemical; conditions: Gly-Pro-AMC hydrolysis
# T1 construct: expressed in transfected cells; host or cells: 293T
# T1 sequence (Q86TI2 whole entry): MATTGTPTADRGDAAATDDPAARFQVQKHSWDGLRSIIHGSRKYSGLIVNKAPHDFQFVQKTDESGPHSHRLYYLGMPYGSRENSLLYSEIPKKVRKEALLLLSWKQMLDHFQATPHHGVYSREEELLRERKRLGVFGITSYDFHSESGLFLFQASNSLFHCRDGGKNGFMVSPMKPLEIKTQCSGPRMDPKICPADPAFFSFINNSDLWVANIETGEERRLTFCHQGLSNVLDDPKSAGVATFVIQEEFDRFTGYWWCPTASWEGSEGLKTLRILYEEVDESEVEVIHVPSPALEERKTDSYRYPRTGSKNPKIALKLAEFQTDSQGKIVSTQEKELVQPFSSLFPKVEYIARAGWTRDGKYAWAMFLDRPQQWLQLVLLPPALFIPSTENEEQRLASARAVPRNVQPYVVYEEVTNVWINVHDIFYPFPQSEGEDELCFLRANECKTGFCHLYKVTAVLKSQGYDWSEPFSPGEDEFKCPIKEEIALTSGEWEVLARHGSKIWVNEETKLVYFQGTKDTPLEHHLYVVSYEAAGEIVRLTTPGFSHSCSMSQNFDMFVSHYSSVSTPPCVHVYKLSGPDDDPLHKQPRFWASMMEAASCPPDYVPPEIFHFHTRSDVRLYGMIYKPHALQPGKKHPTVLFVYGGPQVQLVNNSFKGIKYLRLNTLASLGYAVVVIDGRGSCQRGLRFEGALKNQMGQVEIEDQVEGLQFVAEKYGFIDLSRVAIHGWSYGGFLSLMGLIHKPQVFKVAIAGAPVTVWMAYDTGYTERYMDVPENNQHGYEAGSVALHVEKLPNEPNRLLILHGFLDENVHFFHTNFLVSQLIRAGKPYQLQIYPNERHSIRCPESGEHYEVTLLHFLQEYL
# Procedure: 293T cells were transfected with vector or wild-type DPP9. DPP9-transfected cells were treated with VbP, Anisomycin (ANS) or Harringtonine (HTN). Cells were lysed in PBS 1% Tween-20, 48 h after transfection and treatments. 0.3 μg of total lysate was then incubated with 0.1 μM uGly-Pro-AMC fluorescence substrate. AMC fluorescence was measured after 30 mins at 25° C. in a 50 μl reaction every minute on a spectrometer and the rate of Gly-Pro-AMC hydrolysis per minute calculated.
# ASC = assay: Phosphorylation of inflammasome adaptor ASC; format: cell-based, human; conditions: data not shown
# NLRP1 = assay: Ribosome-bound NLRP1, sucrose cushion; format: cell-based, human; conditions: N-TERT cell lysates
# Procedure: Crude cellular ribosome fractions were purified by sedimentation through a 30% sucrose cushion or a 10-30% sucrose gradient. Cells were lysed for 20 min in 15 mM Tris, pH 7.5, 0.5% NP-40, 6 mM MgCl2, 300 mM NaCl, with 1× protease inhibitors before centrifugation for 10 min at 12000 g, 4° C. The supernatant was then carefully layered onto a 30% sucrose cushion 30% sucrose in 20 mM Tris, pH 7.5, 2 mM MgCl2, 150 mM KCl and ultra-centrifuged at 34,000 rpm for 24 h using Beckman Coulter Ultracentrifuge, Optima XE. Pellets then washed three times with ice cold PBS and suspended in 100 mM KCl, 5 mM MgCl2, 20 mM HEPES, pH 7.6, 1 mM DTT and 10 mM NH4Cl. Purified ribosome fractions were then analysed by immunoblot.
# [2] = system: immortalized keratinocytes (N-TERT); assay: Pyroptosis / apoptosis in N-TERT keratinocytes (morphology, ASC-GFP, PI, Annexin V, immunoblot); format: cell-based, human
# Text: as §1
# N-TERT-ASC-GFP cells were seeded at a cell density of 3000 cells/well of a 96 black well plate (PerkinElmer, CellCarrier-96 Ultra, #6055300). The next morning cells were treated with chemicals for 6 h or treated in the evening for 24 h before staining. 1 hour before observing the cells on the microscope the cells were stained with 1 μg/ml dilution of propidium iodide (PI, Abcam #ab14083), 10 ng/ml dilution of Hoechst 33342 (Life Technologies, #H21492) or stained with Annexin V Alexa Flour 647 (Life technologies, #A23204) according to the manufacturer's protocol. Stained cells were then imaged on a high content screening microscope (Perkin Elmer Operetta CLS imaging system). Images were then stored and analyzed using the Harmony software (Version 6). Fluorescent and brightfield images acquired on the Operetta high content screening microscope were further analyzed using a scoring system to categorize the percentages of live, apoptotic and pyroptotic cells. For 3 fields of view per treatment the number of live cells per field was counted from the merge of the brightfield and ASC-GFP channels. Only cells which contained ASC-GFP throughout the cytoplasm and nucleus were classed as “live”. The number of pyroptotic cells was calculated using the merge of the brightfield and ASC-GFP channels. Only the cells with GFP specks were classed as “pyroptotic”. The number of apoptotic cells was calculated using the merge of the brightfield, ASC-GFP and Annexin V channels. Cells that were stained positive for Annexin V but without a GFP speck were classified as “apoptotic”. Images of ASC-GFP specks were acquired in 3 random fields in 4′,6-diaminidino-2-phenylindole (DAPI, 358 nm/461) and GFP (469 nm/525 nm) channels using the EVOS microscope (FL Auto M5000, #AM F5000) according to the manufacturer's protocol. […]
compound,measurement,setting,value
"COc1ccc(C[C@H]2NC[C@H](O)[C@H]2OC(C)=O)cc1 [ANS, Anisomycin]",canonical inflammasome activation and pyroptosis,[1],underwent canonical inflammasome activation and pyroptosis
same,NLRP1^DR hyperphosphorylation,"NLRP1^DR; NLRP1DR-GFP in N-TERT cells, PhosTag SDS-PAGE",became further phosphorylated
same,band shift (phosphorylation) of PYD-DR1-GFP,NLRP1^DR; NLRP1 KO N-TERT cells expressing GFP-tagged PYD-DR1,band shift in PYD-DR1-GFP
same,catalytic activity of human DPP9,human DPP9,had no effect on the catalytic activity of human DPP9
same,phosphorylation of ASC,ASC,not phosphorylated
same,level of ribosome-bound NLRP1,NLRP1,dramatically increased the level of ribosome-bound NLRP1
same,mode of cell death (apoptosis / pyroptosis),"[2]; Annexin V staining and PI inclusion, immunoblot markers",caused both apoptosis and pyroptosis; also recorded: activate both forms of cell death
same,mode of cell death in NLRP1 KO cells,"[2]; NLRP1 KO N-TERT, Annexin V and PI staining",died exclusively through apoptosis
same,apoptotic cell death (cleaved caspase-3 and PARP-1),[2]; immunoblot,activated classical apoptotic cell death
same,"biochemical hallmarks of inflammasome activation (ASC polymerization, GSDMD-NT, IL1β p17 in media)",[2]; immunoblot,displayed cardinal biochemical hallmarks of inflammasome activation
same,morphological hallmarks of inflammasome activation and pyroptotic cell death,"[2]; membrane ballooning, ASC-GFP specks, PI uptake",rapidly induced the morphological hallmarks of inflammasome activation and pyroptotic cell death
same,fraction of pyroptotic cells,"[2]; single cell level, compared with VbP",comparable to that induced by VbP
